Laboratory results taken from patent US9067974B2, “Polymyxin derivatives and uses thereof” (priority 2006, dated 2015).
Bridge positions count the residues as written; N and C are the ends. Square brackets hold non-standard residues; d marks the D form. Peptide text beside a SMILES is read from it. * marks the point of attachment. Octanoyl = CCCCCCCC(=O)*; Dab = NCC[C@H](N)C(=O)O; Abu = CC[C@H](N)C(=O)O

Assays:
E. cloacae CCUG52947 = experiment: E-test MIC of antibiotics on Mueller-Hinton agar with or without NAB7061 (4 μg/ml); sensitization factor = MIC ratio absence/presence; format: cell-based, Enterobacter cloacae
Procedure: (§1) MICs were determined by using E-strips (Biodisk Ltd., Solna, Sweden) according to the manufacturer's instructions.
(§2) The strains originated from ATCC (11 strains), CCUG (11 strains), and NCTC (The National Collection of Type Cultures, Colindale, U.K.; 2 strains). Eight strains (the F-strains) were purchased from Mobidiag Ltd., Helsinki, Finland. The source of E. coli IH3080 has been given in Example 2. Sensitization factor was defined as in Example 7.

E. cloacae F232 = experiment: as above; format: cell-based, Enterobacter cloacae
Procedure: as §1, §2

E. cloacae F230 = experiment: as above; format: cell-based, Enterobacter cloacae
Procedure: as §1, §2

K. pneumoniae F136 = experiment: as above; format: cell-based, Klebsiella pneumoniae
Procedure: as §1, §2

K. pneumoniae F144 = experiment: as above; format: cell-based, Klebsiella pneumoniae
Procedure: as §1, §2

K. pneumoniae CCUG45421 = experiment: as above; format: cell-based, Klebsiella pneumoniae; details: NAB 7061 4 μg/ml
Procedure: as §1, §2

K. pneumoniae F145 = experiment: as above; format: cell-based, Klebsiella pneumoniae
Procedure: as §1, §2

[1] = system: Acinetobacter baumannii ATCC 19606; experiment: Well diffusion growth inhibition on LB agar plates (direct antibacterial activity); format: cell-based; details: A. baumannii ATCC 19606
How it was run: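 Direct antibacterial activity against Acinetobacter baumannii ATCC 19606 was measured by agar well diffusion on LB plates. The plates were flooded with a suspension of approx. 10^8 cells/ml in 0.9% NaCl, and the excess was removed. Once the surface dried, five wells of 2 mm diameter were drilled per plate. The wells were filled with test compound dissolved in 0.9% NaCl, with plain 0.9% NaCl as control. After 18 h at 37° C., inhibition zone diameters were measured and converted to growth inhibition areas in square mm.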

[2] = system: Pseudomonas aeruginosa ATCC 27853; experiment: as above; format: cell-based; details: Ps. aeruginosa ATCC 27853
How it was run: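 Pseudomonas aeruginosa ATCC 27853 was tested for direct antibacterial susceptibility by agar well diffusion. A suspension of about 10^8 cells/ml in 0.9% NaCl was spread over LB agar and the excess removed. After drying, 2 mm wells were drilled and filled with compound dissolved in 0.9% NaCl, with NaCl alone as control. Plates were incubated 18 h at 37° C, and inhibition zone diameters were measured and converted to areas in square mm.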

S. maltophilia ATCC17444 = experiment: E-test MIC of antibiotics on Mueller-Hinton agar with or without NAB7061 (4 μg/ml); sensitization factor = MIC ratio absence/presence; format: cell-based
Procedure: as §1, §2

[3] = Two-week intravenous toxicity study in young rats; format: in vivo
Procedure: Toxicity in young rats (weighing approx. 150 g in the beginning of the study) was determined by administering doses (1, 2, 4, 8, 16, and 32 mg/kg per day) of NAB7061 as well as the control compound polymyxin B intravenously twice (2) a day for two weeks. A group of ten (10) rats was studied for each dosis regimen. Clinical observations were made daily, the body weight measured twice weekly, and the food consumption twice weekly. In the end of week 2, all animals were sacrificed.
Histopathology of kidneys was performed for each animals and histopathology of all tissues was performed in three high-dose groups receiving NAB7061.

## CCCCCCCC(=O)N[C@H](C(=O)N[C@@H](CC)C(=O)N[C@H]1CCNC(=O)[C@H]([C@@H](C)O)NC(=O)[C@H](CCN)NC(=O)[C@H](CCN)NC(=O)[C@H](CC(C)C)NC(=O)[C@@H](Cc2ccccc2)NC(=O)[C@H](CCN)NC1=O)[C@@H](C)O [NAB 7061, OA-Thr-Abu-cy[Dab-Dab-DPhe-Leu-Dab-Dab-Thr-]] (Octanoyl-T[Abu][Dab][Dab][dF]L[Dab][Dab]T; lactam 3-C)
E. cloacae CCUG52947
  MIC of rifampin in the presence of 4 μg/ml of NAB 7061: 0.032 to 0.047 µg/mL
E. cloacae CCUG52947; NAB 7061 4 μg/ml
  Sensitization factor to rifampin: 500-1000
E. cloacae F232
  MIC of clarithromycin in the presence of 4 μg/ml of NAB 7061: 0.094 µg/mL
  MIC of rifampin in the presence of 4 μg/ml of NAB 7061: 0.023 µg/mL
E. cloacae F230
  MIC of clarithromycin in the presence of 4 μg/ml of NAB 7061: 0.047 µg/mL
  MIC of rifampin in the presence of 4 μg/ml of NAB 7061: 0.016 to 0.032 µg/mL
K. pneumoniae F136
  MIC of clarithromycin in the presence of 4 μg/ml of NAB 7061: 2 µg/mL
  MIC of rifampin in the presence of 4 μg/ml of NAB 7061: 0.75 µg/mL
K. pneumoniae F144
  MIC of rifampin in the presence of 4 μg/ml of NAB 7061: 0.19 µg/mL
K. pneumoniae F144; NAB 7061 4 μg/ml
  Sensitization factor to rifampin: >170
K. pneumoniae CCUG45421
  Sensitization factor to rifampin: 10-20
K. pneumoniae F145
  MIC of clarithromycin in the presence of 4 μg/ml of NAB 7061: 0.25 µg/mL
  MIC of rifampin in the presence of 4 μg/ml of NAB 7061: 0.19 to 0.25 µg/mL
[1]; 4 μg per well
  Antibacterial activity (growth inhibition area around a well): 0 square millimeters
[1]; 10 μg per well
  Antibacterial activity (growth inhibition area around a well): 0 square millimeters
[2]; 4 μg per well
  Antibacterial activity (growth inhibition area around a well): 0 square millimeters
[2]; 10 μg per well
  Antibacterial activity (growth inhibition area around a well): 0 square millimeters
S. maltophilia ATCC17444
  MIC of rifampin in the presence of 4 μg/ml of NAB 7061: 2 µg/mL
[3]; rat, in vivo, 16 mg/kg/day
  Rise of blood urea nitrogen (BUN) versus control or low dose group: no such a rise was found
[3]; rat, in vivo, iv
  Lowest dose that negatively influenced the body weight gain: 8 mg/kg per day
[3]; rats, doses 1 to 32 mg/kg per day intravenously for two weeks
  Survival throughout the study: all rats receiving NAB7061 remained alive throughout the study
[3]; rats, two weeks intravenous dosing
  General pathology and histopathology of organs and kidneys: No NAB7061-related pathological findings were found
